Experiments:
[1] = assay type: in vivo, patients; settings: with crizotinib 150 mg twice daily; 3 plus 3 design
[2] = system: cytochrome P450 family 3 subfamily A member 4 [CYP3A4]; settings: cited from earlier work

For `C#Cc1cccc(Nc2ncnc3cc(OCCOC)c(OCCOC)cc23)c1` [erlotinib], the “maximum tolerated dose (MTD) of erlotinib in the combination” value [1] was 100 mg once daily.
In the case of `C[C@@H](Oc1cc(-c2cnn(C3CCNCC3)c2)cnc1N)c1c(Cl)ccc(F)c1Cl` [crizotinib], the CYP3A4 inhibition [2] is given as “moderate cytochrome P450 family 3 subfamily A member 4 [CYP3A4] inhibitor”.

Reference: publication PMC7249761 (Journal of thoracic oncology : official publication of the …, 2016)
